# Results: ChEMBL document CHEMBL1201862, “PubChem BioAssay data set” (2004)
#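 Following 48 hours of exposure in 96-well plates, responses at five concentrations were used to interpolate endpoints linearly. At the GI50, growth is halved.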 Active and inactive are the calls of the source. Rule as the data show it: active = GI50 up to about 1.1 µM and inactive = higher.
# How the values were obtained:
# Experiment in all cases: NCI tumour cell line growth inhibition, 48 h
# [1] = test system: NCI-H522
# [2] = test system: COLO 205
# [3] = test system: SF-268
# [4] = test system: OVCAR-3
# [5] = test system: SK-MEL-5
# [6] = test system: UACC-257
# [7] = test system: NCI/ADR-RES
# [8] = test system: SN12C
# [9] = test system: SF-295
# [10] = test system: PC-3
# [11] = test system: Hs-578T
# [12] = test system: ACHN
# [13] = test system: 786-0
# [14] = test system: DU-145
# [15] = test system: SW-620
# [16] = test system: HCT-15
# [17] = test system: IGROV-1
# [18] = test system: OVCAR-8
# [19] = test system: SK-MEL-2
# [20] = test system: M14
# [21] = test system: SK-OV-3
# [22] = test system: LOX IMVI
# [23] = test system: A549
# [24] = test system: NCI-H460
# [25] = test system: HT-29
# [26] = test system: Malme-3M
# [27] = test system: HCT-116
# [28] = test system: MDA-N
# [29] = test system: EKVX
# [30] = test system: MOLT-4
# [31] = test system: SNB-75
# [32] = test system: MDA-MB-231
# [33] = test system: HOP-62
# [34] = test system: HOP-92
# [35] = test system: SR
# [36] = test system: UACC-62
# [37] = test system: T47D
# [38] = test system: NCI-H226
# [39] = test system: RPMI-8226
# [40] = test system: OVCAR-4
# [41] = test system: HCC 2998
# [42] = test system: SK-MEL-28
# [43] = test system: A498
# [44] = test system: NCI-H23
# [45] = test system: MCF7
# [46] = test system: K562
# [47] = test system: UO-31
# [48] = test system: U-251
# [49] = test system: CCRF-CEM
# [50] = test system: SNB-19
# [51] = test system: HL-60
# [52] = test system: TK-10
# [53] = test system: KM12
# [54] = test system: CAKI-1
# [55] = test system: MDA-MB-435
smiles,measurement,setting,value
CC(C)(C)[Si](C)(C)OCC1OC(n2cnc3c(N)ncnc32)C(O[Si](C)(C)C(C)(C)C)C1O[Si](C)(C)C(C)(C)C (centres undefined),GI50,[1],7.76 µM (inactive)
same,GI50,[2],19.5 µM (inactive)
same,GI50,[3],15.1 µM (inactive)
same,GI50,[4],2.87 µM (inactive)
same,GI50,[5],3.65 µM (inactive)
same,GI50,[6],6.17 µM (inactive)
same,GI50,[7],> 100 µM (inactive)
same,GI50,[8],14.9 µM (inactive)
same,GI50,[9],10.3 µM (inactive)
same,GI50,[10],2.85 µM (inactive)
same,GI50,[11],15.6 µM (inactive)
same,GI50,[12],6.82 µM (inactive)
same,GI50,[13],3.66 µM (inactive)
same,GI50,[14],7.93 µM (inactive)
same,GI50,[15],10.8 µM (inactive)
same,GI50,[16],35 µM
same,GI50,[17],8.39 µM (inactive)
same,GI50,[18],14.1 µM (inactive)
same,GI50,[19],15.2 µM (inactive)
same,GI50,[20],11.1 µM (inactive)
same,GI50,[21],> 10 µM (inactive)
same,GI50,[22],6.43 µM (inactive)
same,GI50,[23],9.27 µM (inactive)
same,GI50,[24],4.11 µM (inactive)
same,GI50,[25],9.75 µM (inactive)
same,GI50,[26],44.9 µM (inactive)
same,GI50,[27],6.11 µM (inactive)
same,GI50,[28],7.14 µM (inactive)
same,GI50,[29],24.9 µM (inactive)
same,GI50,[30],2.04 µM (inactive)
same,GI50,[31],13.4 µM (inactive)
same,GI50,[32],10.9 µM (inactive)
same,GI50,[33],13.9 µM (inactive)
same,GI50,[34],33.7 µM (inactive)
same,GI50,[35],10.3 µM (inactive)
same,GI50,[36],7.41 µM (inactive)
same,GI50,[37],11.9 µM (inactive)
O=C(CC(C(=O)c1cccs1)c1ccc2c(c1)OCO2)c1ccc(Br)cc1 (centres undefined),GI50,[38],> 100 µM (inactive)
same,GI50,[39],> 100 µM (inactive)
same,GI50,[40],> 100 µM (inactive)
same,GI50,[2],> 100 µM (inactive)
same,GI50,[41],> 100 µM (inactive)
same,GI50,[42],> 100 µM (inactive)
same,GI50,[3],> 100 µM (inactive)
same,GI50,[43],> 100 µM (inactive)
same,GI50,[5],> 100 µM (inactive)
same,GI50,[44],> 100 µM (inactive)
same,GI50,[6],> 100 µM (inactive)
same,GI50,[7],> 100 µM (inactive)
same,GI50,[45],> 100 µM (inactive)
same,GI50,[46],> 100 µM (inactive)
same,GI50,[8],> 100 µM (inactive)
same,GI50,[9],> 100 µM (inactive)
same,GI50,[10],> 100 µM (inactive)
same,GI50,[47],14.9 µM (inactive)
same,GI50,[48],> 100 µM (inactive)
same,GI50,[12],> 100 µM (inactive)
same,GI50,[13],> 100 µM (inactive)
same,GI50,[14],> 100 µM (inactive)
same,GI50,[15],> 100 µM (inactive)
same,GI50,[16],> 100 µM
same,GI50,[17],> 100 µM (inactive)
same,GI50,[49],> 100 µM (inactive)
same,GI50,[18],> 100 µM (inactive)
same,GI50,[50],8.51 µM (inactive)
same,GI50,[20],> 100 µM (inactive)
same,GI50,[21],> 100 µM (inactive)
same,GI50,[23],> 100 µM (inactive)
same,GI50,[24],> 100 µM (inactive)
same,GI50,[51],> 100 µM (inactive)
same,GI50,[26],> 100 µM (inactive)
same,GI50,[52],> 100 µM (inactive)
same,GI50,[28],> 100 µM (inactive)
same,GI50,[29],> 100 µM (inactive)
same,GI50,[30],> 100 µM (inactive)
same,GI50,[31],> 100 µM (inactive)
same,GI50,[53],> 100 µM (inactive)
same,GI50,[54],> 100 µM (inactive)
same,GI50,[55],> 100 µM (inactive)
same,GI50,[32],> 100 µM (inactive)
same,GI50,[33],> 100 µM (inactive)
same,GI50,[35],> 100 µM (inactive)
same,GI50,[36],> 100 µM (inactive)
same,GI50,[37],> 100 µM (inactive)
